Test results: ChEMBL document CHEMBL1821675, “The selective P-TEFb inhibitor CAN508 targets angiogenesis” (Eur J Med Chem, 2011)
Active and inactive are the calls of the source. The rule behind the calls is not given here.

Tests used:
[1] = Cytotoxicity against human Hs 578T cells; assay type: functional
MDA-MB-231 = test: Cytotoxicity against human MDA-MB-231 cells; assay type: functional
SF-539 = test: Cytotoxicity against human SF539 cells; assay type: functional
SW-620 = test: Cytotoxicity against human SW620 cells; assay type: functional
A549 = test: Cytotoxicity against human A549 cells; assay type: functional
HOP-92 = test: Cytotoxicity against human HOP92 cells; assay type: functional
NCI-H226 = test: Cytotoxicity against human NCI-H226 cells; assay type: functional
NCI-H322M = test: Cytotoxicity against human NCI-H322M cells; assay type: functional
NCI-H460 = test: Cytotoxicity against human NCI-H460 cells; assay type: functional
SR = test: Cytotoxicity against human SR cells; assay type: functional
Malme-3M = test: Cytotoxicity against human MALME-3M cells; assay type: functional
MDA-MB-435 = test: Cytotoxicity against human MDA-MB-435 cells; assay type: functional
SK-MEL-2 = test: Cytotoxicity against human SK-MEL-2 cells; assay type: functional
UACC-257 = test: Cytotoxicity against human UACC257 cells; assay type: functional
OVCAR-5 = test: Cytotoxicity against human OVCAR5 cells; assay type: functional
OVCAR-8 = test: Cytotoxicity against human OVCAR8 cells; assay type: functional
786-0 = test: Cytotoxicity against human 786-0 cells; assay type: functional
A498 = test: Cytotoxicity against human A498 cells; assay type: functional
ACHN = test: Cytotoxicity against human ACHN cells; assay type: functional
TK-10 = test: Cytotoxicity against human TK10 cells; assay type: functional
HUVEC [2] = test: Antiangiogenic activity against HUVEC cells assessed as inhibition of VEGF-induced cell migration-associated wound closure after 16 hrs by microscopic analysis; assay type: functional, cell-based; details: Homo sapiens
[3] = Antiangiogenic activity in VEGF-stimulated HMEC1 assessed as reduction in total length of tube at 40 uM after 16 hrs by photographic analysis; assay type: functional, Homo sapiens, HMEC-1; design: scale not given: the % may be the effect or the level left
[4] = Antiangiogenic activity in VEGF-stimulated HMEC1 assessed as reduction in median length of tube at 20 uM after 16 hrs by photographic analysis; assay type: functional, Homo sapiens, HMEC-1; design: scale not given: the % may be the effect or the level left
[5] = Inhibition of AMPK assessed as residual activity at 10 uM by radioactivity assay in presence of 50 uM ATP
[6] = target: Aurora kinase A (Homo sapiens) (UniProt O14965); test: Inhibition of Aurora A assessed as residual activity at 10 uM by radioactivity assay in presence of 5 uM ATP
[7] = target: Tyrosine-protein kinase BTK (Homo sapiens) (UniProt Q06187); test: Inhibition of BTK assessed as residual activity at 10 uM by radioactivity assay in presence of 50 uM ATP
[8] = target: Cyclin-dependent kinase 2/cyclin A (Homo sapiens) (UniProt P24941+P20248+P78396); test: Inhibition of CDK2/cyclin A assessed as residual activity at 10 uM by radioactivity assay in presence of 20 uM ATP; assay type: protein-complex assay
[9] = target: Eukaryotic elongation factor 2 kinase (Homo sapiens) (UniProt O00418); test: Inhibition of EF2K assessed as residual activity at 10 uM by radioactivity assay in presence of 5 uM ATP
[10] = target: Ephrin type-B receptor 4 (Homo sapiens) (UniProt P54760); test: Inhibition of EPH-B4 assessed as residual activity at 10 uM by radioactivity assay in presence of 50 uM ATP
[11] = target: Mitogen-activated protein kinase kinase kinase kinase 2 (Homo sapiens) (UniProt Q12851); test: Inhibition of GCK assessed as residual activity at 10 uM by radioactivity assay in presence of 20 uM ATP
[12] = target: Homeodomain-interacting protein kinase 2 (Homo sapiens) (UniProt Q9H2X6); test: Inhibition of HIPK2 assessed as residual activity at 10 uM by radioactivity assay in presence of 5 uM ATP
Chain of Homeodomain-interacting protein kinase 2 (Homo sapiens) (Q9H2X6 whole entry, looked up): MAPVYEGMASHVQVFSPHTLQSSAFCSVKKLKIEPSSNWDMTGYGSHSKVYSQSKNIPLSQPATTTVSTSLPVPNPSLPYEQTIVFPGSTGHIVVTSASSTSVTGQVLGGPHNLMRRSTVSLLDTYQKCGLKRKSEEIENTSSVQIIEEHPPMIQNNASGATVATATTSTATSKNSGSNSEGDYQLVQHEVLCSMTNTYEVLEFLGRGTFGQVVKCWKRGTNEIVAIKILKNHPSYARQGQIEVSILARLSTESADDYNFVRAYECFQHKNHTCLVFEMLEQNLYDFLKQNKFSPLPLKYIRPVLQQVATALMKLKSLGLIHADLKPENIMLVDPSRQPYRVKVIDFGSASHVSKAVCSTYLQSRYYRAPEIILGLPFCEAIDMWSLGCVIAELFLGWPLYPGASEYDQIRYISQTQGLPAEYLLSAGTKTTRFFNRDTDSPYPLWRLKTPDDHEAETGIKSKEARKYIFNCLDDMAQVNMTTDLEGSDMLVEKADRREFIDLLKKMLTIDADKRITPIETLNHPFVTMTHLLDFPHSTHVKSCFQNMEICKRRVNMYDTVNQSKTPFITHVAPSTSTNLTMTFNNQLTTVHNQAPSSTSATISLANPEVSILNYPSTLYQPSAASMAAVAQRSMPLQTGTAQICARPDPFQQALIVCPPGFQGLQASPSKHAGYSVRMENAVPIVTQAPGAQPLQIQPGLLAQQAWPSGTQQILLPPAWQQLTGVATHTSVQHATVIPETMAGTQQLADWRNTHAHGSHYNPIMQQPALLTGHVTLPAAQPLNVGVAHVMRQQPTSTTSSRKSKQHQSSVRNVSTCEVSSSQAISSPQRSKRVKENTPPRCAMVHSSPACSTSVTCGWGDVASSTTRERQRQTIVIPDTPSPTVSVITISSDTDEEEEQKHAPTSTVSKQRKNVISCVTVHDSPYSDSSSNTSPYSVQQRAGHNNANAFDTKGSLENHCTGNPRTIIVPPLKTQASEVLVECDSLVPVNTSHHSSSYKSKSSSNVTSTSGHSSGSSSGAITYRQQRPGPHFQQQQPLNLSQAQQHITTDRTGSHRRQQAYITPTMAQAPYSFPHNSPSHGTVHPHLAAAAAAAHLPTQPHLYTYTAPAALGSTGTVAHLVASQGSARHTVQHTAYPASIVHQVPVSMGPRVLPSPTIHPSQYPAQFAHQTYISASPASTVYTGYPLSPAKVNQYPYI

[13] = target: Homeodomain-interacting protein kinase 3 (Homo sapiens) (UniProt Q9H422); test: Inhibition of HIPK3 assessed as residual activity at 10 uM by radioactivity assay in presence of 20 uM ATP
[14] = target: Serine/threonine-protein kinase Chk1 (Homo sapiens) (UniProt O14757); test: Inhibition of CHK1 assessed as residual activity at 10 uM by radioactivity assay in presence of 20 uM ATP
Chain of Serine/threonine-protein kinase Chk1 (Homo sapiens) (O14757 whole entry): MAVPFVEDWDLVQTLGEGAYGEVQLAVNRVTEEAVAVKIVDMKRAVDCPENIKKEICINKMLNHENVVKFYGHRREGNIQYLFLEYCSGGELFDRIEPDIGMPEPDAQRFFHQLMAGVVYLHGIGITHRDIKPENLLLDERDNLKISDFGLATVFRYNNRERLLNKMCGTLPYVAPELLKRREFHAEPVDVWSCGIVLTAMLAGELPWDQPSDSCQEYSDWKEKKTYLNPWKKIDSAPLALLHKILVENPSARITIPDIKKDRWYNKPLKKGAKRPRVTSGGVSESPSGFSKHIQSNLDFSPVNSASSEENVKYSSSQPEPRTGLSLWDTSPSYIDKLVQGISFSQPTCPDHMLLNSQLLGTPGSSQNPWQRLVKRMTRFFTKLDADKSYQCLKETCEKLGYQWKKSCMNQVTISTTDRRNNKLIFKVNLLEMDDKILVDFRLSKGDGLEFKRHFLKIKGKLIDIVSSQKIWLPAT

[15] = target: Mitogen-activated protein kinase 8 (Homo sapiens) (UniProt P45983); test: Inhibition of JNK1A1 assessed as residual activity at 10 uM by radioactivity assay in presence of 20 uM ATP
Chain of Mitogen-activated protein kinase 8 (Homo sapiens) (P45983 whole entry): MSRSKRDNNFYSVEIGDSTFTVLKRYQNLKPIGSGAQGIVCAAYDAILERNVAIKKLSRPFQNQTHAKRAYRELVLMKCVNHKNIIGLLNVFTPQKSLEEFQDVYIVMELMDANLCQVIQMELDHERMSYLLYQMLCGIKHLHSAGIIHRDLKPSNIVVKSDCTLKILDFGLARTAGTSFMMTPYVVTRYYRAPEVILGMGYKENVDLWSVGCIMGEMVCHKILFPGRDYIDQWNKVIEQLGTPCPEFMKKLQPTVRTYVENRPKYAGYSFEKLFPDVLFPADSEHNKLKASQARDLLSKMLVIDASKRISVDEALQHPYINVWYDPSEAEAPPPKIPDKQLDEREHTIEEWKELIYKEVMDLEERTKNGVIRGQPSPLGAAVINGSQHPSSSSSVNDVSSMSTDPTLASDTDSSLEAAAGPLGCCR

[16] = target: Mitogen-activated protein kinase 10 (Homo sapiens) (UniProt P53779); test: Inhibition of JNK3alpha1 assessed as residual activity at 10 uM by radioactivity assay in presence of 20 uM ATP
[17] = target: Mitogen-activated protein kinase kinase kinase 1 (Homo sapiens) (UniProt Q13233); test: Inhibition of MEKK1 assessed as residual activity at 10 uM by radioactivity assay in presence of 20 uM ATP
[18] = target: MAP kinase-interacting serine/threonine-protein kinase 2 (Homo sapiens) (UniProt Q9HBH9); test: Inhibition of MNK2alpha assessed as residual activity at 10 uM by radioactivity assay in presence of 50 uM ATP
Chain of MAP kinase-interacting serine/threonine-protein kinase 2 (Homo sapiens) (Q9HBH9 whole entry, looked up): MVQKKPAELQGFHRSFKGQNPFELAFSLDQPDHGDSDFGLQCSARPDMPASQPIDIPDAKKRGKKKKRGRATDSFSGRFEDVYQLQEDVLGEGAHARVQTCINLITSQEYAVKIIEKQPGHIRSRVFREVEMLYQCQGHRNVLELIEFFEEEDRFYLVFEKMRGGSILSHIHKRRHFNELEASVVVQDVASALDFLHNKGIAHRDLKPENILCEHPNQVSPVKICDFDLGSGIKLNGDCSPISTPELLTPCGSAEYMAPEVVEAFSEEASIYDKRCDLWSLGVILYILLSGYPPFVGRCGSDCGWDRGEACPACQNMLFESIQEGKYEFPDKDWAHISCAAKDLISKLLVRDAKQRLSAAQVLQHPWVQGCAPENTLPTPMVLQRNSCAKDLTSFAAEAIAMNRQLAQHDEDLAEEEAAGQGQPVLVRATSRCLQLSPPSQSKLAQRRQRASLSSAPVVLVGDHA

[19] = target: Serine/threonine-protein kinase 26 (Homo sapiens) (UniProt Q9P289); test: Inhibition of MST4 assessed as residual activity at 10 uM by radioactivity assay in presence of 20 uM ATP
Chain of Serine/threonine-protein kinase 26 (Homo sapiens) (Q9P289 2-416 limits assumed): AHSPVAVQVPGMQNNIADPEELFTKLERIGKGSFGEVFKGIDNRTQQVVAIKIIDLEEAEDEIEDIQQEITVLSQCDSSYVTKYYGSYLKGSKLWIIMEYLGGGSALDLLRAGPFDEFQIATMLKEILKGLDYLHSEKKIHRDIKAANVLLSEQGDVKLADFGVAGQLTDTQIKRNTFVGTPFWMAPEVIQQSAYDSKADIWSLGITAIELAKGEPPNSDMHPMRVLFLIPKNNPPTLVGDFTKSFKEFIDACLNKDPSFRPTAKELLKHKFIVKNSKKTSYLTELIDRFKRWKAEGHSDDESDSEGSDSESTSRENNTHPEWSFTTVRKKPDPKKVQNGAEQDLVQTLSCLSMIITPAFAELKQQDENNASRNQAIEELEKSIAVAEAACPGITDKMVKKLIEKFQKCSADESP

[20] = target: Serine/threonine-protein kinase PAK 2 (Homo sapiens) (UniProt Q13177); test: Inhibition of PAK2 assessed as residual activity at 10 uM by radioactivity assay in presence of 20 uM ATP
[21] = target: Serine/threonine-protein kinase D1 (Homo sapiens) (UniProt Q15139); test: Inhibition of PKD1 assessed as residual activity at 10 uM by radioactivity assay in presence of 50 uM ATP
[22] = target: MAP kinase-activated protein kinase 5 (Homo sapiens) (UniProt Q8IW41); test: Inhibition of PRAK assessed as residual activity at 10 uM by radioactivity assay in presence of 20 uM ATP
Chain of MAP kinase-activated protein kinase 5 (Homo sapiens) (Q8IW41 whole entry): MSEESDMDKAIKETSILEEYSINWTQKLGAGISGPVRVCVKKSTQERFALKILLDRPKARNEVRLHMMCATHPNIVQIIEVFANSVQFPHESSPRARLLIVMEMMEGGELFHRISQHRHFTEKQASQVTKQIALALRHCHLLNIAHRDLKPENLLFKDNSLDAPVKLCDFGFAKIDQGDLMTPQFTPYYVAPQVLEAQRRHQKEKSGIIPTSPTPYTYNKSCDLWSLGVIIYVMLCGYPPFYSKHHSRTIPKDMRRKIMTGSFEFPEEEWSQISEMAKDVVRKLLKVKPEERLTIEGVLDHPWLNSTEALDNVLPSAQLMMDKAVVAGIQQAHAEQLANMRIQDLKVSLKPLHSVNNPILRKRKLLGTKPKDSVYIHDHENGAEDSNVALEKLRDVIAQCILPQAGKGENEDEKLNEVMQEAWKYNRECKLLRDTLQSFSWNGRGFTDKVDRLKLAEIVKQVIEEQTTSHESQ

[23] = target: Mitogen-activated protein kinase kinase kinase 7 (Homo sapiens) (UniProt O43318); test: Inhibition of TAK1 assessed as residual activity at 10 uM by radioactivity assay in presence of 5 uM ATP
Chain of Mitogen-activated protein kinase kinase kinase 7 (Homo sapiens) (O43318 whole entry): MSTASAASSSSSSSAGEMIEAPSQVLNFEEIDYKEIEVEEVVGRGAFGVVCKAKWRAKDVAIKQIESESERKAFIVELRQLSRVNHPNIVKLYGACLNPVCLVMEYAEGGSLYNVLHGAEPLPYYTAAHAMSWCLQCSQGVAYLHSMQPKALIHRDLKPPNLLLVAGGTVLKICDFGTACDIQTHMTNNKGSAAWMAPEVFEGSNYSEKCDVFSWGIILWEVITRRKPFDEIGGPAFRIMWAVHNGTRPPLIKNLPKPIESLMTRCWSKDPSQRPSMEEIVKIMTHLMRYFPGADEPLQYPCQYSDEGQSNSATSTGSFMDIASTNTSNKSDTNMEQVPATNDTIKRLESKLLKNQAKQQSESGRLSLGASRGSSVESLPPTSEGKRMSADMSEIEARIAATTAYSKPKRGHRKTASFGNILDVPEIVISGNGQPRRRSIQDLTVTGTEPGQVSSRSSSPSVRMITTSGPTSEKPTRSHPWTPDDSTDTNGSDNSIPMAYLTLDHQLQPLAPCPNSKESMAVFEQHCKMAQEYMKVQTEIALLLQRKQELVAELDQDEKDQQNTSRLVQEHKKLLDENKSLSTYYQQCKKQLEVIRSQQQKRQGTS

[24] = target: Dual specificity protein kinase TTK (Homo sapiens) (UniProt P33981); test: Inhibition of TTK assessed as residual activity at 10 uM by radioactivity assay in presence of 20 uM ATP
Chain of Dual specificity protein kinase TTK (Homo sapiens) (P33981 whole entry): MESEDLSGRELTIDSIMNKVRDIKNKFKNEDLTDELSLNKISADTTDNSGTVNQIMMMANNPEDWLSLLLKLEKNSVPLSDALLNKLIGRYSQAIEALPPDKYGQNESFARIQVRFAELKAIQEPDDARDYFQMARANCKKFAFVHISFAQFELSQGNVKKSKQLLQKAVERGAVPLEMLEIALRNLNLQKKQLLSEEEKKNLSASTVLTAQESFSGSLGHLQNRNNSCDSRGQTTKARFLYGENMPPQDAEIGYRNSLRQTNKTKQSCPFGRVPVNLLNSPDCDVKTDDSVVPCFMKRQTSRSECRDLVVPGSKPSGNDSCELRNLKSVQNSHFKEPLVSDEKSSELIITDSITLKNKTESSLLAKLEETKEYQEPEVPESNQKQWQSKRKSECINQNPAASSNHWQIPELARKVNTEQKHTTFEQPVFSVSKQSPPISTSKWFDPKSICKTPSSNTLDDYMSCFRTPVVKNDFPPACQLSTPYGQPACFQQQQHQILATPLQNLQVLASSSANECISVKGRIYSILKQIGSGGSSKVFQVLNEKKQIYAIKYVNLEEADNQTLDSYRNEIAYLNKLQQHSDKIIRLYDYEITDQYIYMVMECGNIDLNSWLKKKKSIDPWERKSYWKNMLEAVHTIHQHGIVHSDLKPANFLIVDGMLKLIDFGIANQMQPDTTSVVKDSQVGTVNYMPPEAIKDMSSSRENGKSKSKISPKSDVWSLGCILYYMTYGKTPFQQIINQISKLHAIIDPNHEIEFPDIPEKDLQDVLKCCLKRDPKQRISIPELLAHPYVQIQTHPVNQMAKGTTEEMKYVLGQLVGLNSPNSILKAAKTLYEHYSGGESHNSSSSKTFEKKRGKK

HUVEC [25] = test: Antiangiogenic activity against HUVEC cells assessed as inhibition of VEGF-induced cell migration-associated wound closure at >10 uM after 16 hrs by microscopic analysis; assay type: functional, cell-based; details: Homo sapiens
[26] = Antiproliferative activity against HMEC1 cells assessed as decrease in cell viability at 10 to 40 uM within 72 hrs by calcein AM staining-based fluorescence assay; details: human, hmec-1, 72 h

**Q.** Which GI50 [1] does the source give for Nc1n[nH]c(N)c1/N=N/c1ccc(O)cc1 here?
**A.** 21.8 µM

**Q.** What about the GI50 (MDA-MB-231) of the same compound?
**A.** 16.7 µM

**Q.** What about the GI50 (SF-539) of the same compound?
**A.** 13.2 µM

**Q.** And the GI50 (SW-620)?
**A.** 26.3 µM

**Q.** What about the GI50 (A549) of the same compound?
**A.** 22.5 µM

**Q.** And the GI50 (HOP-92)?
**A.** 18.2 µM

**Q.** What about the GI50 (NCI-H226) of the same compound?
**A.** 17.7 µM

**Q.** And the GI50 (NCI-H322M)?
**A.** 25.1 µM

**Q.** And the GI50 (NCI-H460)?
**A.** 25.1 µM

**Q.** What about the GI50 (SR) of the same compound?
**A.** 10.3 µM

**Q.** And the GI50 (Malme-3M)?
**A.** 24.5 µM

**Q.** What about the GI50 (MDA-MB-435) of the same compound?
**A.** 17.1 µM

**Q.** What about the GI50 (SK-MEL-2) of the same compound?
**A.** 14.4 µM

**Q.** And the GI50 (UACC-257)?
**A.** 24.4 µM

**Q.** What about the GI50 (OVCAR-5) of the same compound?
**A.** 23.5 µM

**Q.** And the GI50 (OVCAR-8)?
**A.** 18 µM

**Q.** What about the GI50 (786-0) of the same compound?
**A.** 26.2 µM

**Q.** And the GI50 (A498)?
**A.** 18.2 µM

**Q.** And the GI50 (ACHN)?
**A.** 15.6 µM

**Q.** And the GI50 (TK-10)?
**A.** 25.6 µM

**Q.** And the inhibition (HUVEC [2])?
**A.** Dose-dependent effect

**Q.** What about the Activity [3] of the same compound?
**A.** 30%

**Q.** And the Activity [4]?
**A.** 30%

**Q.** And the Activity [5]?
**A.** 82%

**Q.** What about the Activity [6] of the same compound?
**A.** 107%

**Q.** What about the Activity [7] of the same compound?
**A.** 41%

**Q.** And the Activity [8]?
**A.** 27%

**Q.** And the Activity [9]?
**A.** 106%

**Q.** And the Activity [10]?
**A.** 99%

**Q.** And the Activity [11]?
**A.** 20%

**Q.** And the Activity [12]?
**A.** 44%

**Q.** What about the Activity [13] of the same compound?
**A.** 84%

**Q.** And the Activity [14]?
**A.** 98%

**Q.** And the Activity [15]?
**A.** 87%

**Q.** What about the Activity [16] of the same compound?
**A.** 108%

**Q.** And the Activity [17]?
**A.** 100%

**Q.** What about the Activity [18] of the same compound?
**A.** 39%

**Q.** What about the Activity [19] of the same compound?
**A.** 77%

**Q.** What about the Activity [20] of the same compound?
**A.** 91%

**Q.** What about the Activity [21] of the same compound?
**A.** 67%

**Q.** What about the Activity [22] of the same compound?
**A.** 43%

**Q.** And the Activity [23]?
**A.** 53%

**Q.** And the Activity [24]?
**A.** 55%

**Q.** What about the inhibition (HUVEC [25]) of the same compound?
**A.** Active

**Q.** What about the Activity [26] of the same compound?
**A.** Non-toxic
